Measured values from patent publication US20140158116A1, “INHIBITING TRPA1 FOR THE TREATMENT OF ASTHMA” (Cubist Pharmaceuticals, Inc., priority 2012, published 2014).
Where two headings read alike, the source gives them in different places.

Key:
[1] = Oral bioavailability pharmacokinetic study; type: in vivo; conditions: rat, plasma, PO versus IV
Description: The potency and pharmacokinetic (PK) properties of (a) the compound of Formula (Ia); and (b) comparator compound of Formula (III) were evaluated. Bioavailability was measured as well. A pharmacokinetic study was performed to obtain a plasma drug concentration vs time plot for the drug after both intravenous (IV) and oral (PO) administration. The absolute bioavailability is the dose-corrected area under curve (AUC) non-intravenous divided by AUC intravenous. The formula for calculating F for a drug administered by the oral route (PO) is given below.
The bioavailability was calculated using the equation shown below:
% F=AUC PO×Dose IV/AUC IV×Dose PO

[2] = target: T1, hTRPC5 (Homo sapiens, UniProt Q9UL62); experiment: Patch clamp selectivity, hTRPC5; type: cell-based
T1 sequence (Q9UL62 1-973): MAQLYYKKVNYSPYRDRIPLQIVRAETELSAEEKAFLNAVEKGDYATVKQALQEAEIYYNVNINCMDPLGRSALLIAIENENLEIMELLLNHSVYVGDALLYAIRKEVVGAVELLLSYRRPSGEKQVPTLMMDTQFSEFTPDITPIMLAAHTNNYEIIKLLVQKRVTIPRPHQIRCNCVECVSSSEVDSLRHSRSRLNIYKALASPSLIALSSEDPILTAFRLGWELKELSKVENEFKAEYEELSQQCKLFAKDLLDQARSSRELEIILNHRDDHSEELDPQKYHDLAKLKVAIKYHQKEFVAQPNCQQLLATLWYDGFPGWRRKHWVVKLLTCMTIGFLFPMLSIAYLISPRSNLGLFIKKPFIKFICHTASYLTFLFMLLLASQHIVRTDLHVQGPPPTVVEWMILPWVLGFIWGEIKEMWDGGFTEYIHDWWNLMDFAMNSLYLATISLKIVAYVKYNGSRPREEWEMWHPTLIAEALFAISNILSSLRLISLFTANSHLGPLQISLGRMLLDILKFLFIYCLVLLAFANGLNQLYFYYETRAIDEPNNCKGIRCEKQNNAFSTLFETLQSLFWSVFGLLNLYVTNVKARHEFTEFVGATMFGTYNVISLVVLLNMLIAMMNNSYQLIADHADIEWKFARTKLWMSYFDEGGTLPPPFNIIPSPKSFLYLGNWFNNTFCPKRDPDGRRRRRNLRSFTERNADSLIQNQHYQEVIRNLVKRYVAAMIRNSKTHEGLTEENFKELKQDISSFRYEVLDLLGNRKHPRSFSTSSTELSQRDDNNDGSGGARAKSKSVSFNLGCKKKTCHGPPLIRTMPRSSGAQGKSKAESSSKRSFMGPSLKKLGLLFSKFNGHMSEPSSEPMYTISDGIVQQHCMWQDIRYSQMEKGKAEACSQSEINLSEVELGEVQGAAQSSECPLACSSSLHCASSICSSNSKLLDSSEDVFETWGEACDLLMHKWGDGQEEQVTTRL
Description: Data for TRPA1 inhibition and the selectivity of TRPA1 inhibition was obtained by this method for the compound of Formula (Ia) and included in Table 1 and Table 2. All currents were recorded in whole-cell configuration using EPC-9 and EPC-10 amplifiers and Patchmaster software (HEKA). […] The standard pipette solution consisted of 140 mM CsAsp, 10 mM EGTA, 10 mM HEPES, 2.27 mM MgCl2, 1.91 mM CaCl2, 4 mM MgATP, and 0.1-0.3 mM Na2GTP, with pH adjusted to 7.2 with CsOH. In addition, a solution containing 145 mM CsCl, 10 mM HEPES, 10 mM EGTA and 1 mM MgCl2 (pH 7.2 adjusted with CsOH) can be used. The standard bath solution contained 150 mM NaCl, 10 mM HEPES, 10 mM glucose, 4.5 mM KCl, 1 mM EGTA, 3 mM MgCl2, with pH adjusted to 7.4 with NaOH. In some instances, 2 mM CaCl2 was added in place of EGTA and the concentration of MgCl2 was reduced to 1 mM.
Data were collected either by continuous recordings at −60 mV or by applying voltage ramps from a holding potential of 0 mV every 4 s. […] Inward and outward currents were analyzed from the ramps at −80 and 80 mV, respectively. […]
Solutions were switched using a gravity-fed continuous focal perfusion system. […] Temperatures were confirmed using a thermistor (Warner Instruments, TA-29), with temperatures at the recorded cell estimated to be within +/−2° C. of those reported. […]

C[C@H]1CCCN1c1ncc(-c2cccc(NC(=O)Cn3cnc4c3c(=O)n(C)c(=O)n4C)n2)cn1 [Formula (Ia)]
bioavailability ([1]; oral, fed rats, read-out: Bioavailability (Rat) Fed): > 50%
bioavailability ([1]; po, fasted rats, read-out: Bioavailability (Rat) Fasted): 25 to 50%
bioavailability ([1]; po, fed rats, read-out: Bioavailability (Rat) Fed): > 50%
Fold Selectivity Compared to TRPA1 [2]: >100 fold
IC50 ([2]; 80 micromolar LaCl3, Inward (−80 mV)): > 10 µM
